Measured values reported in patent US5266589A, “Method of increasing the muscle/fat ratio in agricultural domestic animals” (Duphar International Research B.V., priority 1990, dated 1993).
pEC50: −log10 of the molar value. “Also recorded” adds a separate entry of the source. Where two headings read alike, the source gives them in different places.

How the values were obtained:
right atrium = experiment: Heart activity: chronotropic effect on isolated right atria, in relation to Isoprenaline; assay type: cell-based, male Wistar rats; details: for Emax: read-out: Chronotropic effect on the right atrium: i.a. (intrinsic activity); for EC50: read-out: Chronotropic effect on the right atrium: pEC50 (converted)
Protocol: The heart activity has been determined in heart tissue of rats. It is known that rats are just as suitable for the determination of the heart activity (chronotropy) as the agricultural domestic animals mentioned hereinbefore.
The substances are tested with respect to their chronotropic effect on isolated right atria under a pre-load with 0.5 g, in an organ bath which contains the above Krebs buffer solution and is kept at 37° C. Dose-response curves with Isoprenaline® are determined. The results are again expressed as pEC50 values and, in relation to Isoprenaline®, as intrinsic activities ("i.a.").

ovine adipocytes = experiment: Lipolytic activity on isolated ovine adipocytes (FFA production), in relation to Isoprenaline; assay type: cell-based, sheep
Excerpt: It is known, for example, from a contribution by R. G. Vernon in "New perspectives in Adipose Tissue; structure, function and development", page 76, edited by Cryer and Van, Butterworths 1984, London, that there exists a good relationship between the lipolytic activity on the one hand and the activity as a repartitioning agent on the other hand. This means that a high value for the lipolytic activity is predictable for the increase of the muscle/fat ratio and for improving the growth and the feed efficiency of agricultural domestic animals. The influence of the tested compounds on the lipolysis of adipocytes is described in example I hereinafter. Bovine and ovine adipocytes, i.e. adipocytes of representative examples of agricultural domestic animals, have been used in this example.
Pieces of adipose tissue of approximately 600×600 μm, isolated from bovine animals or sheep, are provided in a teflon container containing: 3 ml of Krebs-Henseleit buffer having a pH of 7.4, 1% w/v of demineralized bovine serum albumin (BSA), 0.33 mg/ml of collagenase and 200 nM of adenosine. The adipocytes are isolated by shaking the container at 37° C. under carbogen gassing (approximately 5% CO2 in 95% O2). After 1 hour the suspension is filtered through nylon gauze (100 μm) and washed 2 times with Krebs-Henseleit buffer at room temperature. The incubations are carried out in duplicate, each incubation mixture consisting of 50 μl of the filtered cell suspension, 100 μl of the compound to be tested, 2% w/v of BSA and 50 μg/ml of Na2 S2 O5 (antioxidant) in 2.85 ml of Krebs-Henseleit buffer. Incubation: 90 minutes at 37° C. while shaking and gassing with carbogen. […] In the organic layer the produced free fatty acids (FFA) are determined. […] The yellow color is measured in a colorimeter and is a measure of the FFA-production. […] In addition to the fond pEC50 values, the values for the intrinsic activity ("i.a.") have been recorded in Table A hereinafter. The intrinsic activity is the maximally achievable activity, also measured again with respect to Isoprenaline®.

bovine adipocytes = experiment: Lipolytic activity on isolated bovine adipocytes (FFA production), in relation to Isoprenaline; assay type: cell-based; details: for EC50 / Emax: Bos taurus, Adipocyte; for EC50: 1.5 h, read-out: Lipolytic activity: pEC50 (converted); for Emax: read-out: Lipolytic activity: i.a. (intrinsic activity)
Protocol: Pieces of adipose tissue of approximately 600×600 μm, isolated from bovine animals or sheep, are provided in a teflon container containing: 3 ml of Krebs-Henseleit buffer having a pH of 7.4, 1% w/v of demineralized bovine serum albumin (BSA), 0.33 mg/ml of collagenase and 200 nM of adenosine. […] After 1 hour the suspension is filtered through nylon gauze (100 μm) and washed 2 times with Krebs-Henseleit buffer at room temperature. The incubations are carried out in duplicate, each incubation mixture consisting of 50 μl of the filtered cell suspension, 100 μl of the compound to be tested, 2% w/v of BSA and 50 μg/ml of Na2 S2 O5 (antioxidant) in 2.85 ml of Krebs-Henseleit buffer. Incubation: 90 minutes at 37° C. while shaking and gassing with carbogen. After the incubation, extraction is carried out with 3 ml of 2-propanol/n-hexane/1N-H2 SO4 (40:20:1) mixture. In the organic layer the produced free fatty acids (FFA) are determined. This determination is carried out as follows: 150 μl of sample are diluted with 1 ml of chloroform and then mixed with copper reagent (10% Cu(NO3)2 /2M triethanolamine/2N acetic acid=10:9:1); 0.2% w/v of sodium diethyldithiocarbamate is added. The yellow color is measured in a colorimeter and is a measure of the FFA-production. […] The intrinsic activity is the maximally achievable activity, also measured again with respect to Isoprenaline®.

swine adipose tissue = details: Mersmann, cited from earlier work; for lipolytic activity, in words: pigs
heart = details: in the dosages required for the intended purpose; cited from earlier work
heart rate = details: pig, in vivo; cited from earlier work
[1] = compared with tested known substances / in the concentration required for the intended use

SMILES | Emax (right atrium; Rattus norvegicus) | EC50 (right atrium; Rattus norvegicus) | heart activity, in words (right atrium; [1]) | EC50 (bovine adipocytes) | Emax (bovine adipocytes) | lipolytic activity, in words (swine adipose tissue) | side effects on the heart, in words (heart) | also measured
CC(C)(Cc1ccc(O)cc1)NCC(O)c1cc(O)cc(O)c1 (stereo not shown) [(1), 1-(3,5-dihydroxyphenyl)-2-[1,1-dimethyl-2-(4-hydroxyphenyl)ethylamino]ethanol] | 40% | 2510 nM | considerably lower than that of the substances Ractopamine®, Fenoterol® and Clenbuterol®; also recorded: without a burdensome heart activity being experienced | 3160 nM | 80% | low lipolytic activity |  | heart activity, in words (right atrium; compared with tested known substances / in the concentration required for the intended use, listed as 1-(3,5-dihydroxyphenyl)-2-[1,1-dimethyl-2-(4-hydroxyphenyl)-ethylamino]ethanol): low heart effect; lipolytic activity on ovine adipocytes, in words (ovine adipocytes): remarkably high lipolytic activity; pEC50 (ovine adipocytes; Ovis aries, Adipocyte, 1.5 h, 90 minutes at 37° C., pEC50 = negative logarithm of concentration at 50% of maximum effect): 6.30; Emax (ovine adipocytes; Ovis aries, Adipocyte, maximally achievable activity with respect to Isoprenaline, read-out: Lipolytic activity: i.a. (intrinsic activity)): 140%; lipolytic activity on bovine adipocytes, in words (bovine adipocytes; bovine adipocytes): remarkably high lipolytic activity; intrinsic lipolytic activity, comparison in words (bovine adipocytes; versus Ractopamine and Clenbuterol): significantly higher than that of the phenylalkylamino derivatives Ractopamine® and Clenbuterol®; relative ED50 (lipolysis) (swine adipose tissue; swine adipose tissue, relative to Fenoterol): approximately ten times as high as that of Fenoterol®
CC(C)(C)NCC(O)c1cc(Cl)c(N)c(Cl)c1 (stereo not shown) [Clenbuterol] | 40% | 50.1 nM |  | 1580 nM | 30% |  | serious side effects because in the dosages required for the intended purpose an undesired influence on the heart is exerted | 
CC(Cc1ccc(O)cc1)NCC(O)c1cc(O)cc(O)c1 (stereo not shown) [Fenoterol] | 100% | 251 nM | considerable heart activity in the concentration required for the intended purpose | 794 nM | 80% |  |  | 
CC(CCc1ccc(O)cc1)NCC(O)c1ccc(O)cc1 (stereo not shown) [Ractopamine] |  |  |  |  |  |  | serious side effects because in the dosages required for the intended purpose an undesired influence on the heart is exerted | heart activity, in words (right atrium): considerable heart activity in the required concentration; Emax (right atrium; isolated rat right atria, in relation to Isoprenaline): 100%; EC50 (right atrium; isolated rat right atria, pre-load 0.5 g, Krebs buffer, 37° C.): 31.6 nM; EC50 (bovine adipocytes; bovine adipocytes, 90 minutes at 37° C., pEC50 = negative logarithm of concentration at 50% of maximum effect): 2510 nM; Emax (bovine adipocytes; bovine adipocytes, maximally achievable activity with respect to Isoprenaline): 60%
CC(C)(C)NCC(O)c1cc(O)cc(O)c1 (stereo not shown) [terbutaline] |  |  |  |  |  | less active in lipolysis |  | increasing heart rate, in words (heart rate): more active in increasing heart rate
